Experimental data as given in US10450549B2, “Aryloxyphenoxypropionate tolerance in turfrgass species and use of AAD1 as a selectable marker” (Dow AgroSciences, LLC, priority 2004, dated 2019).
Where two headings read alike, the source gives them in different places.

Legend:
PAAD1.315.064 ARBTH = experiment: In vitro plate test of herbicide cross resistance: homozygous T4 AAD1 (v3) Arabidopsis; type: in vivo, Arabidopsis thaliana
Protocol: (§1) The ability of AAD1 (v3) to provide resistance to other aryloxyphenoxyalkanoate herbicides in transgenic Arabidopsis was determined using a modified in vitro plate assay. Seeds from wild-type Arabidopsis thaliana as well as Arabidopsis thaliana containing the plant optimized AAD1 (v3) gene (T4 homozygous plants id=PAAD1.315.064) were sterilized by agitating for 10 min in a 50% bleach solution. These seeds were then rinsed four times with sterile water to remove the bleach.
(§2) Dose response assays utilized a nutrient media (see below) supplemented with various rates of test compounds. The test compounds were added to the heated media (55° C.) as concentrated solutions in DMSO. Control wells had the appropriate amount of DMSO without any additional compound. The final concentration of DMSO never exceeded 1% (v/v). After thorough mixing, a 6 mL aliquot of the warm media containing the appropriate concentration of compound was added to each well of a 6-well, flat bottom, polystyrene tissue culture tray (Falcon 353046, Becton Dickson and Company, Franklin Lakes, N.J.). After the media solidified, approximately 20 to 30 Arabidopsis seeds were applied on top of the solidified media and the remaining 2 mL of media was poured over the seeds. The plates were lightly agitated to disperse the seeds, covered and allowed to cool until the media had completely solidified. The plates were incubated for 7 days at 25° C. under continual fluorescent lighting (75 μE m^−2 s^−1). Nutrient Media Composition was as described in Example 2.2 and in Somerville and Orgen (1982).
(§3) Assessment of Growth Reduction. The apical portion of the Arabidopsis plants grown in the treated media was assessed visually relative to the apical portion of the plants grown in the media containing only DMSO. Values were recorded as % growth reduction. Assessments of root growth inhibition of the Arabidopsis plants grown in the treated media were achieved by carefully extracting the plants from the media and measuring the length of the root. These root lengths were then compared to the root length of the control plants to determine a % growth reduction. A minimum of five plants were assessed for each treatment. The values recorded are an average of all the plants assessed. The calculated concentration to reach 50% inhibition effect (I50) were determined for both root and shoots of wildtype and AAD1-transformed Arabidopsis. The ratios of resistant to sensitive biotypes are included in Table 19. A ratio>2 for both root and shoot measurements generally signifies significant resistance. The higher the ratio, the greater the level of resistance. […] The broad phenoxy auxin resistance is the first reported in planta.

AAD1 (v1) = molecular target: T1, AAD1 (v1) (Sphingobium herbicidovorans, UniProt Q8KSC8); experiment: HPLC analysis of herbicide degradation by AAD1 (v1) cell extract; type: biochemical; conditions: AAD1 (v1) cell extract, same conditions as 2,4-D
T1 construct: made in house; host or cells: E. coli BL-21 Star (DE3), plasmid pDAB3203

wt ARBTH = experiment: In vitro plate test of herbicide cross resistance: wild-type Arabidopsis; type: in vivo, Arabidopsis thaliana; conditions: 7 days
Protocol: as §1, §2, §3

[1] = system: Arabidopsis thaliana var. Columbia; experiment: Arabidopsis plate test bioassay for herbicide degradation; type: in vivo; conditions: for IC50: Arabidopsis thaliana, 168 h
[2] = system: transformed-control line containing PAT and Cry1F; experiment: Foliar-applied auxinic herbicides on control (PAT/Cry1F, wildtype) Arabidopsis, % injury 14 DAT; type: in vivo, Arabidopsis thaliana; conditions: PatCry1f - Control
Procedure, shortened: (§4)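 Homozygous T4 AAD1 (v3) Arabidopsis (line AAD1.01.315.076) and a PAT/Cry1F transformed control were grown in pots and track-sprayed foliarly at 187 L/ha with herbicides formulated in 200 mM Hepes pH 7.5. Injury was rated 14 days after treatment, with 3-4 replicates averaged over two experiments.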

[3] = system: T4 Arabidopsis homozygous for AAD1 (v3) (line AAD1.01.315.076); experiment: Foliar-applied auxinic herbicides on homozygous T4 AAD1 (v3) Arabidopsis, % injury 14 DAT; type: in vivo, Arabidopsis thaliana; conditions: AAD1.01.315.076.T4 homozygous AAD1 plants
Procedure, shortened: as §4

[4] = system: DAS Soybean cell suspensions; experiment: Glufosinate selection of soybean suspension cells; type: cell-based
Protocol: The DAS Soybean cell suspensions were cultured on a 3 d cycle with 10 ml of settled suspension volume transferred to 115 ml of fresh liquid medium. Settled cell volume was determined by allowing the cell suspension to settle for 2 min in the 125-mL flask after vigorous swirling and then drawing cells from the bottom of the flask with a wide bore 10 ml pipette. The flasks were then transferred to orbital shakers at 140 rpm.
Aliquots of 4 ml of the suspension cells at 0.72 OD^600 was transferred along with 200 μM acetosyringone (AS) onto a 100×25 sterile Petri plate. EHA105 Agrobacterium suspension at a density of 1.2 OD^650 in a 100 μL volume was added and mixed well. The Agrobacterium and suspension cell mixture was swirled well and the plate was transferred to dark growth chamber where the temperature was maintained at 25° C.
13.2.1—Selection of soybean suspension cells and isolation of transformed colonies. After 4 days of co-cultivation the plate was swirled again to mix the suspension well and a 1.5 ml aliquot was transferred to the selection medium and spread on the gel medium on a 100×15 ml Petri-plate. […] After a 10 min drying in the hood the plates were incubated for 4 weeks in dark at 28° C. Colonies appeared in selection and a total of 11 colonies were transferred to fresh medium from 3 different experiments and maintained for 3-4 months. […]

[5] = system: Non-transformed Hi-II callused suspension tissue; experiment: Dose response of non-transformed maize callus tissue; type: cell-based
[6] = resistant to sensitive biotype, >2 signifies resistance

T1 sequence (Q8KSC8 whole entry): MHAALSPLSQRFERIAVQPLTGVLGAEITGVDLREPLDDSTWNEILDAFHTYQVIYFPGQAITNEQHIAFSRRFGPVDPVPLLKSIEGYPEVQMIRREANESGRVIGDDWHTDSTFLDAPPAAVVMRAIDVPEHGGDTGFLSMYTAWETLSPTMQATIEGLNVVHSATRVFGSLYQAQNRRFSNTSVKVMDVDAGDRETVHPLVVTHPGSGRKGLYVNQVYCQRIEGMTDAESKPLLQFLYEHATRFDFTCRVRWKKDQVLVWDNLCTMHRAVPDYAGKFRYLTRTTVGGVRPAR

SMILES: O=C(O)COc1nc(Cl)c(Cl)cc1Cl [Triclopyr]
- root ratio (PAAD1.315.064 ARBTH; [6]): 1
- shoot ratio (PAAD1.315.064 ARBTH; [6]): 0.2
- resistance afforded by AAD1 (v3) in plate test (PAAD1.315.064 ARBTH; root and shoot assessment): did not effectively protect
- PAAD1.315.064 ARBTH root 150 (PAAD1.315.064 ARBTH; root, 7 days): 0.02 ppm
- PAAD1.315.064 T3 ARBTH shoot 150 (PAAD1.315.064 ARBTH; shoot, 7 days): 0.04 ppm
- enzyme activity on substrate (HPLC) (AAD1 (v1)): No enzyme activity was detected
- wt ARBTH root 150 (wt ARBTH; root): 0.02 ppm
- wt ARBTH shoot 150 (wt ARBTH; shoot): 0.2 ppm
- IC50 ([1]; AAD1 (v1)-expressing lysate, nominal concentration, read-out: GR50, Chemical + AAD1 v1): 1000 nM
- IC50 ([1]; root length, 7 days, read-out: GR50, Chemical alone): 255 nM
- GR50 ratio ([1]; enzyme-expressing lysate vs blank vector, ≥ 2 = threshold for activity loss): 1
- Ave % Injury 14DAT ([2]; 50 g ae/ha foliar): 36%
- Ave % Injury 14DAT ([2]; 200 g ae/ha foliar): 65%
- Ave % Injury 14DAT ([2]; 800 g ae/ha foliar): 84%
- Ave % Injury 14DAT ([2]; 3200 g ae/ha foliar): 95%
- Ave % Injury 14DAT ([3]; 50 g ae/ha foliar): 31%
- Ave % Injury 14DAT ([3]; 200 g ae/ha foliar): 58%
- Ave % Injury 14DAT ([3]; 800 g ae/ha foliar): 74%
- Ave % Injury 14DAT ([3]; 3200 g ae/ha foliar): 97%

SMILES: CP(=O)(O)CCC(N)C(=O)O (centres unmarked) [glufosinate ammonium]
- response of non-transformed suspension cells ([4]; 0.5 mg/l): sensitive
- response of transformed colonies ([4]; 5 mg/L (5× concentration), up to 4 months): resistant

SMILES: Oc1ccc(Oc2ncc(C(F)(F)F)cc2Cl)cc1 [haloxyfop phenol]
- callus growth relative to control lacking haloxyfop phenol ([5]; 300 nM): equal to or greater than the control

SMILES: N#Cc1ccc(Oc2ccc(O)cc2)c(F)c1 [cyhalofop phenol]
- callus growth relative to control without cyhalofop phenol ([5]; 1 μM): 76%
